In brackets after ≈: the same amount, converted by molar mass.
Key:
[1] = Octanol/water partition co-efficient, log P of compound at pH 7.4; assay type: physicochemical
[2] = Half life in human; assay type: ADME
[3] = Aqueous solubility of compound in pH 7.4; assay type: physicochemical
[4] = Protein binding in human plasma; assay type: ADME, cell-free; conditions: read-out: PPB (converted)

Which logD [1] does the source give for `COCCCOc1cc(C[C@@H](C[C@H](N)[C@@H](O)C[C@H](C(=O)NCC(C)(C)C(N)=O)C(C)C)C(C)C)ccc1OC` here?
The logD was 2.45.

And the half-life [2]?
The half-life was 24 h.

And the solubility [3]?
Its solubility is 350 mg/mL (≈ 634 mM).

And the fraction unbound [4]?
Its fraction unbound is 0.505.
